Measured values taken from patent US20110118275A1, “OXAZOLO[4,5-c]PYRIDINE SUBSTITUTED PYRAZINE” (ASTRAZENECA AB, priority 2009, published 2011).
Blank lines part the entries; values can stand above or below the compound they belong to.

What was measured:
recombinant human GSK3β = target: T1, recombinant human GSK3β (Homo sapiens, UniProt P49841); test: Determination of GSK3β activity in Scintillation Proximity Assay; format: biochemical; conditions: Km of ATP 3 μM used to calculate Ki; 1 μmol/L ATP; read-out: mean GSKβ Ki value
T1 construct: purchased Dundee University, UK
T1 sequence (P49841 whole entry): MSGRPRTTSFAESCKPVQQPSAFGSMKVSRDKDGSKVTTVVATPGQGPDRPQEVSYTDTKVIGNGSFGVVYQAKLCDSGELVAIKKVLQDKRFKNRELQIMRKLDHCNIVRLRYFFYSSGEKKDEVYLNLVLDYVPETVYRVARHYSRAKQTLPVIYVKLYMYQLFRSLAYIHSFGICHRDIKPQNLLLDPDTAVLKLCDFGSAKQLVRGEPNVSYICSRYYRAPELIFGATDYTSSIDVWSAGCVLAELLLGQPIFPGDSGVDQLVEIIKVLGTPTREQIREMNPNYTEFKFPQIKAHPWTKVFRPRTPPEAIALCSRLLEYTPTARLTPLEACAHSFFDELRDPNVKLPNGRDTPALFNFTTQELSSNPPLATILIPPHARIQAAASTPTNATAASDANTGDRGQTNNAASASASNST
Protocol: Determination of GSK3β activity in Scintillation Proximity Assay.
The inhibition experiments were carried out in duplicate with 10 concentrations of the inhibitor in 384 well clear-bottom microtitre plates. A biotinylated peptide substrate (Biotin-Ala-Ala-Glu-Glu-Leu-Asp-Ser-Arg-Ala-Gly-Ser(PO3H2)-Pro-Gln-Leu (AstraZeneca, Lund)), was added at a final concentration of 1 μmol/L in an assay buffer (pH 7.0) containing 0.6 mU recombinant human GSK3β (Dundee University, UK), (˜5 nmol/L active enzyme), 10 mmol/L morpholinepropanesulfonic acid (MOPS), 0.3 mmol/L EDTA, 0.01% (v/v) (3-mercaptoethanol, 0.003% (w/v) polyethylene 23 lauryl ether (Brij 35), 0.4% glycerol and 0.02 mg bovine serum albumine (BSA) and preincubated for 10 minutes. The reaction was initiated by the addition of 0.06 μCi [γ-33P]ATP (Amersham, UK) and unlabelled ATP in 30 mmol/L Mg(Ac)2 to a final concentration of 1 μmol/L ATP. The final assay volume was 15 μL. Blank controls without peptide substrate were used. After incubation for 15 min at room temperature, the reaction was terminated by the to addition of stop solution containing 1.3 mmol/L EDTA, 13 μmol/L ATP, 0.02% Triton™X-100 and 0.15 mg streptavidin coated SPA beads. After a 5 minutes centrifugation at 2000 rpm, the radioactivity was measured in a liquid scintillation counter (1450 MicroBeta Trilux, Perkin Elmer, Finnland). […]

[1] = Hygroscopicity by Dynamic Vapor Sorption (DVS); format: physicochemical; conditions: 25° C.
Protocol: Description of the Dynamic Vapor Sorption (DVS) Method Used
The weight change over time as a function of relative humidity (RH) at 25° C. was measured in a DVS Advantage, equipped with a SMS ultrabalance using DVS Advantage Control Software Version 1.2.0.21, from Surface Measurement Systems, London, UK.
Carrier gas was nitrogen 200 ml/minute. The sample amount was circa 10 mg. The equilibrium criteria, for each step, was set to 0.002%/minute with DMDT Window 5 minutes, DMDT Min Time 10 minutes and DMDT Max Time 360 minutes as defined in the Control Software. DMDT uses the percentage rate of change of mass with time (dm/dt) to determine whether a sample has come to equilibrium.
DMDT Window (min): The time window, over which a straight line is fitted to the mass data in order to calculate a value of dm/dt.
DMDT Min Time (min): The time that the measured dm/dt must satisfy the specified dm/dt criteria before switching to the next Method Stage.
DMDT Max Time (min): The maximum time a Method Stage will run in dm/dt mode before switching to the next Method Stage—regardless of whether the dm/dt criterion has been satisfied.
The sample was initially dried at 0% RH and the water vapor sorption was measured as weight gain after stepwise increase to 10, 20, 30, 40, 50, 60, 70, 80, 90 and 95% relative humidity. After stepwise drying using the same relative humidities in reverse order down to 0% RH a second sorption curve was obtained.

[2] = target: T2, recombinant Axl tyrosine kinase (Homo sapiens, UniProt P30530); test: In vitro Axl kinase assay (AlphaScreen); format: biochemical; conditions: Ki calculated from IC50, Km for ATP 0.2 μM
T2 construct: GST (N); made in house; host or cells: SF126 insect cells
T2 sequence (P30530 473-894): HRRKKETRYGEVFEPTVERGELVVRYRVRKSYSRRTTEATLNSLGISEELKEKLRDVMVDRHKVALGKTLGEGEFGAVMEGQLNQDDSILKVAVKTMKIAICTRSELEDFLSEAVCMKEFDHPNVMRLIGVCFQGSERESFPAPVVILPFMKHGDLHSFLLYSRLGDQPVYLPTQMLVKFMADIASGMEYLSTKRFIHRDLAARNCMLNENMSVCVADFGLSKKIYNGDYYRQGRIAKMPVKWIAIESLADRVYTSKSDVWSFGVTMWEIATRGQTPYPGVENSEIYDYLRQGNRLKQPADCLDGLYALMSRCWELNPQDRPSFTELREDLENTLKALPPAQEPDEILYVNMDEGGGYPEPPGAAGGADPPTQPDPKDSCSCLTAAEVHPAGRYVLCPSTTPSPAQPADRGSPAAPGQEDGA
Source text: Determination of the In Vitro Axl Kinase Assay.
The following assays can be used to measure the effects of the compounds of the present invention as inhibitors of Axl tyrosine kinase enzyme, as inhibitors in vitro of the phosphorylation of Axl expressed on NCI H1299 lung large cell carcinoma cells. The assay used AlphaScreen technology (Gray et al., Analytical Biochemistry, 2003, 313: 234-245) to determine the ability of test compounds to inhibit phosphorylation by recombinant Axl tyrosine kinase.
N-terminal GST-Axl kinase domain encompassing amino acids 473 to 894 of Axl (GenBank Accession No NM_021913) was expressed in […] insect cells and purified using the GST epitope tag, using standard purification techniques.
Test compounds were prepared as 10 mM stock solutions in dimethylsulphoxide (DMSO) and diluted in DMSO as required. […]
Each reaction was stopped by the addition of 5 μl of a mixture of 500 mM EDTA, 3 mg/ml bovine serum albumin (BSA) and 20 mM Tris-HCl pH 7.4 buffer containing 40 ng/μl AlphaScreen Streptavidin donor and anti-p-Tyr-100 acceptor beads (Perkin Elmer, Catalogue No. 6760620M). The resultant signals arising from laser light excitation at 680 nm were read using a Packard Envision instrument. […]

Ki (recombinant human GSK3β): 2.3 nM
Average weight gain ([1]; 0% RH): 0.0%
Weight gain calculated as molar equivalents of water ([1]; 0% RH): 0.0 molar equivalents of water
Weight gain first sorption curve ([1]; 0% RH): 0.00%
Weight gain second sorption curve ([1]; 0% RH): 0.00%
Average weight gain ([1]; 10% RH): 0.1%
Weight gain calculated as molar equivalents of water ([1]; 10% RH): 0.0 molar equivalents of water
Weight gain first sorption curve ([1]; 10% RH): 0.12%
Weight gain second sorption curve ([1]; 10% RH): 0.14%
Average weight gain ([1]; 20% RH): 2.4%
Weight gain calculated as molar equivalents of water ([1]; 20% RH): 0.5 molar equivalents of water
Weight gain first sorption curve ([1]; 20% RH): 2.34%
Weight gain second sorption curve ([1]; 20% RH): 2.41%
Average weight gain ([1]; 30% RH): 3.1%
Weight gain calculated as molar equivalents of water ([1]; 30% RH): 0.7 molar equivalents of water
Weight gain first sorption curve ([1]; 30% RH): 3.09%
Weight gain second sorption curve ([1]; 30% RH): 3.14%
Average weight gain ([1]; 60% RH): 4.7%
Weight gain calculated as molar equivalents of water ([1]; 60% RH): 1.1 molar equivalents of water
Weight gain first sorption curve ([1]; 60% RH): 4.72%
Weight gain second sorption curve ([1]; 60% RH): 4.65%
Average weight gain ([1]; 90% RH): 9.2%
Weight gain calculated as molar equivalents of water ([1]; 90% RH): 2.1 molar equivalents of water
Weight gain first sorption curve ([1]; 90% RH): 9.16%
Weight gain second sorption curve ([1]; 90% RH): 9.19%
Ki [2]: 113 nM
SMILES: CN1CCN(C(=O)c2ccc(-c3cnc(N)c(-c4nc5cnccc5o4)n3)cc2)CC1 [Example 1, (4-(5-Amino-6-(oxazolo[4,5-c]pyridin-2-yl)pyrazin-2-yl)phenyl)(4-methylpiperazin-1-yl)methanone]

Ki (recombinant human GSK3β): 3.2 nM
SMILES: Nc1ncc(-c2ccc(C(=O)N3CCNCC3)cc2)nc1-c1nc2cnccc2o1 [Example 14, (4-(5-Amino-6-(oxazolo[4,5-c]pyridin-2-yl)pyrazin-2-yl)phenyl)(piperazin-1-yl)methanone]
